ChEMBL document CHEMBL3217756, “Biological and computational evaluation of an oxadiazole derivative (MD77) as a new lead for direct STAT3 inhibitors” (Medchemcomm, 2012)

System: LOX IMVI
Test: Cytotoxicity against human LOXIMVI cells after 48 hrs by sulforhodamine B assay
Assay type: functional

SMILES: O=C(Nc1nonc1-c1ccc(Cl)cc1)c1ccc(C(F)(F)F)cc1
- GI50 (read-out: GI50): 0.872 µM
- LC50 (read-out: LC50): > 100 µM
- TGI (read-out: TGI): 57 µM
- GI50 (read-out: pGI50 (converted)): 0.871 µM
- LC50 (read-out: pLC50 (converted)): > 100 µM
- TGI (read-out: pTGI (converted)): 57.5 µM
